Reference: patent publication US20220145092A1, “BIT COMPOSITIONS WITH SIGNIFICANTLY IMPROVED ACTIVITY” (Troy Technology II, Inc., priority 2020, published 2022)

System: Pseudomonas aeruginosa (ATCC 10145)
Experiment: MIC by microbroth dilution and synergy index, Pseudomonas aeruginosa
Assay type: cell-based
Details: product level
Procedure: MICs were determined via microbroth dilution using the following specific test parameters:
Necessary organism dilutions via OD600 were calculated based on OD600 of 1.0 being equivalent to 8*10^8 CFU/mL. Biocide dilutions were performed in 2-fold increments for each assay.
Synergy index (SI) scores were calculated according to the mass action equation below:
S.I.=[MIC[A] in-blend/MIC[A] alone]+[MIC[B] in-blend/MIC[B] alone]
Combinations of ingredients were determined to be synergistic (S.I.≤0.5), additive (S.I.>0.5 to 1), indifferent (S.I.>1 to <2) or antagonistic (S.I.≥2), as defined by EUCAST guidelines^1. 1 European Committee for Antimicrobial Susceptibility Testing (EUCAST) of the European Society of Clinical Microbiology and Infectious Diseases (ESCMID). EUCAST Definitive Document E.Def 1.2, May 2000: Terminology relating to methods for the determination of susceptibility of bacteria to antimicrobial agents. Clin. Microbiol. Infect. Off. Publ. Eur. Soc. Clin. Microbiol. Infect. Dis. 6, 503-508 (2000).
MIC values for Mergal BIT20X (20% BIT), individual amines, and 1:1 mixtures of amines and Mergal BIT20X were determined against the test organism Pseudomonas aeruginosa (ATCC 10145) using 96-well microbroth dilution methodology.
Synergy of Jeffamine T403 and Mergal BIT20X mixtures from 1:50 to 50:1 were tested against P. aeruginosa. Jeffamine T403 was diluted to 20% w/w before mixing with Mergal BIT20X at the indicated ratios. The results are plotted in FIG. 1. Jeffamine T403 and Mergal BIT20X are synergistic at ratios with excess T403. In FIG. 1, the x-axis indicates the fractional BIT level in the blend (1=100% BIT, 0=100% T403, 0.5=50% BIT, 50% T403, etc.), the left y-axis is the MIC against Pseudomonas aeruginosa (ATCC 10145), and the right y-axis is the calculated Synergy Index (SI). The dotted line indicates the synergy index cutoff as defined by EUCAST guidelines (SI<0.5). The MIC raw data is presented in Table 3; MIC values are reported on active concentration.

Compound	MIC, Amine Only, Avg. [ppm]	MIC, Amine Only, Rep. 1 [ppm]	MIC, Amine Only, Rep.2 [ppm]
CC(CN)CCCN (stereo not drawn) [Dytek A]	2500	2500	2500
NCCNCCNCCN [TETA]	938	625	1250
